According to US9598412B2, “Spiroindoline compounds for use as anthelminthics” (Intervet, Inc., priority 2010, dated 2017):
Like-named read-outs stand apart in the source and are kept apart here.

Test system: Haemonchus contortus
Test: Efficacy against Haemonchus contortus in jirds
Assay type: in vivo
Settings: 72 h, jirds (Meriones unguiculatus), necropsy three days after treatment, read-out: reduction of the Haemonchus contortus count (mean larvae count in stomach vs untreated control group)
Method: Compounds according to this invention (numbers refer to the compound number in Table 1) were tested in vivo using Haemonchus contortus in jirds (Meriones unguiculatus). The jirds were orally infected with approximately 750-3.000 third-stage larvae of Haemonchus contortus. Ten days after infection, the jirds in the treatment groups were treated once either orally or subcutaneously with compounds at a dose of 10 mg or 50 mg per kg bodyweight. Three days after treatment, the jirds were necropsied, and the larvae burden in the stomach was determined. During the study no side-effects in jirds were observed. The efficacy was defined as the reduction of the mean larvae count in the infected jirds of the treatment group in comparison to the infected jirds in an untreated control group (negative control).

[1] = po, treated once orally at 50 mg/kg bw ten days after infection
[2] = sc, treated once subcutaneously at 50 mg/kg bw ten days after infection
[3] = po, treated once orally at 10 mg/kg ten days after infection

| SMILES | inhibition in vivo at 50 mg/kg [2] [%] | inhibition in vivo at 10 mg/kg [3] [%] | other results |
| --- | --- | --- | --- |
| O=C(c1ccnc(Cl)c1)N1CC2(CCN(C/C=C/c3ccc(F)cc3F)CC2)c2cc(C(F)(F)F)ccc21 [Compound 12] |  |  | inhibition in vivo at 50 mg/kg [1]: ≥ 50% |
| O=C(c1ccnc(Cl)c1)N1CC2(CCN(C/C=C/c3ccc(F)cc3F)CC2)c2c(Cl)cc(Cl)cc21 [Compound 19] |  |  | inhibition in vivo at 50 mg/kg [1]: ≥ 50% |
| O=C(c1ccnc(Cl)c1)N1CC2(CCN(C/C=C/c3ccc(F)cc3F)CC2)c2c1ccc(Cl)c2Cl [Compound 20] | ≥ 50 |  |  |
| O=C(c1ccnc(Cl)c1)N1CC2(CCN(C/C=C/c3cccc(Cl)c3Cl)CC2)c2cc(Cl)ccc21 [Compound 25, [5-chloro-1′-[(E)-3-(2,3-dichlorophenyl)allyl]spiro[indoline-3,4′-piperidine]-1-yl]-(2-chloro-4-pyridyl)methanone] | ≥ 50 |  |  |
| O=C(c1ccnc(Cl)c1)N1CC2(CCN(C/C=C/c3ccc(Cl)c(Cl)c3)CC2)c2cc(Cl)ccc21 [Compound 27] | ≥ 50 |  |  |
| O=C(c1ccnc(Cl)c1)N1CC2(CCN(C/C=C/c3ccc(Cl)cc3)CC2)c2cc(C(F)(F)F)ccc21 [Compound 42] |  | ≥ 50 |  |
| Cc1ccc2c(c1)C1(CCN(C/C=C/c3ccc(Cl)c(Cl)c3)CC1)CN2C(=O)c1ccnc(Cl)c1 [Compound 71] |  |  | inhibition in vivo at 10 mg/kg (sc, treated once subcutaneously at 10 mg/kg ten days after infection): ≥ 50% |
| O=C(c1ccnc(Cl)c1)N1CC2(CCN(C/C=C/c3ccc(Cl)c(Cl)c3)CC2)c2cc(SC(F)(F)F)ccc21 [Compound 77] |  | ≥ 50 |  |
| Cc1ccc2c(c1)C1(CCN(C/C=C/c3ccc(Cl)cc3F)CC1)CN2C(=O)c1ccnc(Cl)c1 [Compound 87] |  | ≥ 50 |  |
